In ChEMBL document CHEMBL1201862, “PubChem BioAssay data set” (2004):
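Grown in 96-well plates, cells were treated for 48 hours with each compound at five concentrations. Insufficient inhibition: endpoint recorded as highest concentration tested. Here, GI50 denotes the concentration required for 50% inhibition of growth.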 Calls of active or inactive are those of the source. No stated cut-off is given here; in the data, active = GI50 up to about 1.1 µM and inactive = higher.

Legend:
Assay in all cases: inhibition of tumour cell growth, NCI panel, 48 h
A549 = tested on: A549
DU-145 = tested on: DU-145
EKVX = tested on: EKVX
HCT-116 = tested on: HCT-116
HCT-15 = tested on: HCT-15
HOP-62 = tested on: HOP-62
IGROV-1 = tested on: IGROV-1
MCF7 = tested on: MCF7
MDA-MB-231 = tested on: MDA-MB-231
NCI-H522 = tested on: NCI-H522
OVCAR-3 = tested on: OVCAR-3
OVCAR-5 = tested on: OVCAR-5
OVCAR-8 = tested on: OVCAR-8
SF-268 = tested on: SF-268
SK-MEL-2 = tested on: SK-MEL-2
SN12C = tested on: SN12C
SR = tested on: SR
T47D = tested on: T47D
UACC-257 = tested on: UACC-257
CCRF-CEM = tested on: CCRF-CEM

SMILES	GI50 (A549)	GI50 (DU-145)	GI50 (EKVX)	GI50 (HCT-116)	GI50 (HCT-15)	GI50 (HOP-62)	GI50 (IGROV-1)	GI50 (MCF7)	GI50 (MDA-MB-231)	GI50 (NCI-H522)	GI50 (OVCAR-3)	GI50 (OVCAR-5)	GI50 (OVCAR-8)	GI50 (SF-268)	GI50 (SK-MEL-2)	GI50 (SN12C)	GI50 (SR)	GI50 (T47D)	GI50 (UACC-257)	GI50 (CCRF-CEM)
c1ccc2c(c1)nc1n2CNCC1	> 100 µM (inactive)	43.3 µM (inactive)	> 100 µM (inactive)	43.2 µM (inactive)	50.2 µM	> 100 µM (inactive)	94 µM (inactive)	45.7 µM (inactive)	> 100 µM (inactive)	43.1 µM (inactive)	> 100 µM (inactive)	> 100 µM (inactive)	58.5 µM (inactive)	> 100 µM (inactive)	> 100 µM (inactive)	> 100 µM (inactive)	29.7 µM (inactive)	37.2 µM (inactive)	> 100 µM (inactive)	–
O=C1CC2[C@@H](N3CCCC3)CCC(N1Cc1ccccc1)C2(O)O (stereo partly specified)	> 100 µM (inactive)	> 100 µM (inactive)	> 100 µM (inactive)	> 100 µM (inactive)	> 100 µM	> 100 µM (inactive)	> 100 µM (inactive)	> 100 µM (inactive)	> 100 µM (inactive)	> 100 µM (inactive)	> 100 µM (inactive)	> 100 µM (inactive)	> 100 µM (inactive)	> 100 µM (inactive)	–	> 100 µM (inactive)	> 100 µM (inactive)	> 100 µM (inactive)	> 100 µM (inactive)	> 100 µM (inactive)
CC(NC(CC12CC3CC(CC(C3)C1)C2)C(N)=O)c1ccccc1 (stereo unspecified)	39.8 µM (inactive)	24.7 µM (inactive)	23.4 µM (inactive)	18.7 µM (inactive)	31.7 µM	28.1 µM (inactive)	39.7 µM (inactive)	35 µM (inactive)	29.3 µM (inactive)	18 µM (inactive)	13.2 µM (inactive)	17.5 µM (inactive)	23.6 µM (inactive)	25 µM (inactive)	–	–	17.4 µM (inactive)	35.6 µM (inactive)	15.2 µM (inactive)	19.1 µM (inactive)
COC(=O)C1(NC(=O)C(Cc2ccccc2)N(C(=O)OC(C)(C)C)C(=O)OC(C)(C)C)CCCC1 (stereo unspecified)	37.9 µM (inactive)	> 100 µM (inactive)	66.2 µM (inactive)	55.7 µM (inactive)	66.4 µM	77.8 µM (inactive)	> 100 µM (inactive)	27.5 µM (inactive)	80.9 µM (inactive)	–	–	58.6 µM (inactive)	43.9 µM (inactive)	> 100 µM (inactive)	> 100 µM (inactive)	> 100 µM (inactive)	> 10 µM (inactive)	36.6 µM (inactive)	–	22.9 µM (inactive)
Nc1nc(Cl)cc(NCCO)n1	> 100 µM (inactive)	> 100 µM (inactive)	> 100 µM (inactive)	> 100 µM (inactive)	> 100 µM	> 100 µM (inactive)	> 100 µM (inactive)	> 100 µM (inactive)	> 100 µM (inactive)	> 100 µM (inactive)	> 100 µM (inactive)	> 100 µM (inactive)	> 100 µM (inactive)	> 100 µM (inactive)	> 100 µM (inactive)	> 100 µM (inactive)	> 100 µM (inactive)	> 100 µM (inactive)	> 100 µM (inactive)	–
NNc1[nH]c(=S)[nH]c1C(N)=O	> 100 µM (inactive)	> 100 µM (inactive)	> 100 µM (inactive)	> 100 µM (inactive)	> 100 µM	> 100 µM (inactive)	> 100 µM (inactive)	> 100 µM (inactive)	> 100 µM (inactive)	> 100 µM (inactive)	> 100 µM (inactive)	> 100 µM (inactive)	> 100 µM (inactive)	> 100 µM (inactive)	> 100 µM (inactive)	> 100 µM (inactive)	–	> 100 µM (inactive)	> 100 µM (inactive)	> 100 µM (inactive)
